Measured values from article PMC7463930, “Evidence Supporting an Antimicrobial Origin of Targeting Peptides to Endosymbiotic Organelles” (Cells, 2020).
No end group written: not given here.

Tested on: Bacillus subtilis
Experiment: Standard minimum inhibitory concentration broth microdilution assay
Assay type: cell-based
Procedure: Standard minimum inhibitory concentration broth microdilution assays in the presence of BSA/acetic acid were performed in triplicate as described in [65] using peptides chemically synthesized to ≥95% purity (Proteogenix). Dilution series are based on net peptide content, calculated by multiplying the dry weight by %N and by purity. %N is a measure of the peptide (rather than salt) fraction in the lyophilized product, while purity, provided by the manufacturer, is the fraction of the peptide with the desired sequence among all supplied peptides.
To determine the AMP-activity of TPs, we performed the symmetrical experiment. Several chemically synthesized TPs, chosen for their variable proximity to Class I HA-RAMPs (Figure S8B), were used to challenge Bacillus subtilis in a standard assay, using magainin II as a positive control (Figure 7). […] A high sensitivity was deemed a useful feature for an antimicrobial assay in this proof-of-principle experiment, since we expected TPs to have a lower activity than bona fide AMPs as they have been selected for targeting and not for impeding microbial growth over the last 1.5 By.
B. subtilis was challenged with serial dilutions of synthetic peptides (See Table S7 for sequences): the Rattus norvegicus peptide hormone cholecystokinin-22, the C. reinhardtii tSP of lumenal 16.5 kDa protein, the HA-RAMP magainin II, Neurospora crassa mTP of ATP synthase F1β subunit and C. reinhardtii cTPs from RBCA and plastocyanin (PCY1) or mTPs from cytochrome c oxidase 12 kDa subunit (COX13) and Serine HydroxylMethyl Transferase 1 (SHMT1). (A) One dilution plate out of three performed replicates is shown to illustrate how the data was obtained. Transparent wells illustrate absence of growth. Red arrows point to the minimal peptide inhibiting concentration. (B) Minimum inhibitory concentrations (MIC) for each of the three replicate plates are reported in a table. TEXT PRINTED IN THE PICTURE: (B) cck-22: MIC (μg/ml) rep 1: >1000; MIC (μg/ml) rep 2: >1000; MIC (μg/ml) rep 3: >1000 | (B) TL16-tSP: MIC (μg/ml) rep 1: >1000; MIC (μg/ml) rep 2: >1000; MIC (μg/ml) rep 3: >1000 | (B) Magainin II: MIC (μg/ml) rep 1: 4; MIC (μg/ml) rep 2: 4; MIC (μg/ml) rep 3: 4 | (B) pF1β-mTP: MIC (μg/ml) rep 1: 8; MIC (μg/ml) rep 2: 4; MIC (μg/ml) rep 3: 8 | (B) RBCA-cTP: MIC (μg/ml) rep 1: 63; MIC (μg/ml) rep 2: 63; MIC (μg/ml) rep 3: 63 | (B) COX13-mTP: MIC (μg/ml) rep 1: 250; MIC (μg/ml) rep 2: 250; MIC (μg/ml) rep 3: 250 | (B) PCY1-cTP: MIC (μg/ml) rep 1: 1000; MIC (μg/ml) rep 2: 1000; MIC (μg/ml) rep 3: 1000 | (B) SHMT1-mTP: MIC (μg/ml) rep 1: 31; MIC (μg/ml) rep 2: 31; MIC (μg/ml) rep 3: 31

Which results are given for “cholecystokinin-22 (NLQGLDPSHRISDRDYMGWMDF; ends and bridges not checked; UniProt P01355 82-103, looked up) [cck-22, Rattus norvegicus small peptide hormone cholecystokinin-22, used as negative control]”?
inhibited growth (in words) (B. subtilis challenged with chemically synthesized peptides, negative controls): neither; MIC (μg/ml) rep 1 (B. subtilis, broth microdilution in the presence of BSA/acetic acid, serial dilutions based on net peptide content, peptides synthesized to ≥95% purity, replicate plate 1 of 3): > 1000 µg/mL; MIC (μg/ml) rep 2 (B. subtilis, broth microdilution in the presence of BSA/acetic acid, serial dilutions based on net peptide content, peptides synthesized to ≥95% purity, replicate plate 2 of 3): > 1000 µg/mL; MIC (μg/ml) rep 3 (B. subtilis, broth microdilution in the presence of BSA/acetic acid, serial dilutions based on net peptide content, peptides synthesized to ≥95% purity, replicate plate 3 of 3): > 1000 µg/mL
